Values of other authors, collected in patent US7569576B2, “Cyclic 1-(acyloxy)-alkyl prodrugs of GABA analogs, compositions and uses thereof” (XenoPort, Inc., priority 2002, dated 2009).

SMILES	toxicity (LD50, mouse)
NCC1(CC(=O)O)CCCCC1 [gabapentin]	more than 8000 mg/kg
O=C1CC2(CCCCC2)CN1 [lactam 9]	300 mg/kg
